Laboratory results published in patent publication US20080153872A1, “Bis-(Coumarin) Compounds With Anti-Inflammatory Activity” (priority 2005, published 2008).

How the values were obtained:
[1] = test system: Human prostanoid receptor; assay: Human prostanoid receptor assay ([3H]-PGD2 competition); type: binding; details: 10 μM concentration; CHO-K1
Method: (§1) All compounds were dissolved in dimethyl sulfoxide (DMSO). Final concentration of the DMSO in all tests was 1% (v/v). Inhibition in all tests is considered preferred if it exceeds 50% at 10 μM concentration (or less).
Human prostanoid receptor is expressed in Chinese hamster ovary cell line, clone K1 (CHO-K1). Substances and radioactive competitor (tritium labelled Prostaglandin D2 in 1.7 nM concentration) are incubated with cells in HEPES buffer for 2 hours at 25° C. in the presence of manganese ions. Level of the bound PGD2 is measured by scintillation counting, and competition is calculated from comparing the total amount of the bound PGD2 in treated versus control cells. Prostanoids are involved in many physiological and pathological processes, from inflammation to pain.

[2] = molecular target: T1, human 5-LO (Homo sapiens, UniProt P09917); assay: Human 5-Lipoxygenase, 5-LO, assay in peripheral mononuclear blood cells; type: cell-based; details: 10 μM concentration, LTB4 readout
T1 construct: Human peripheral mononuclear blood cells were isolated using Ficoll density separation; endogenous in cells; host or cells: human peripheral blood mononuclear cells
T1 sequence (P09917 1-674): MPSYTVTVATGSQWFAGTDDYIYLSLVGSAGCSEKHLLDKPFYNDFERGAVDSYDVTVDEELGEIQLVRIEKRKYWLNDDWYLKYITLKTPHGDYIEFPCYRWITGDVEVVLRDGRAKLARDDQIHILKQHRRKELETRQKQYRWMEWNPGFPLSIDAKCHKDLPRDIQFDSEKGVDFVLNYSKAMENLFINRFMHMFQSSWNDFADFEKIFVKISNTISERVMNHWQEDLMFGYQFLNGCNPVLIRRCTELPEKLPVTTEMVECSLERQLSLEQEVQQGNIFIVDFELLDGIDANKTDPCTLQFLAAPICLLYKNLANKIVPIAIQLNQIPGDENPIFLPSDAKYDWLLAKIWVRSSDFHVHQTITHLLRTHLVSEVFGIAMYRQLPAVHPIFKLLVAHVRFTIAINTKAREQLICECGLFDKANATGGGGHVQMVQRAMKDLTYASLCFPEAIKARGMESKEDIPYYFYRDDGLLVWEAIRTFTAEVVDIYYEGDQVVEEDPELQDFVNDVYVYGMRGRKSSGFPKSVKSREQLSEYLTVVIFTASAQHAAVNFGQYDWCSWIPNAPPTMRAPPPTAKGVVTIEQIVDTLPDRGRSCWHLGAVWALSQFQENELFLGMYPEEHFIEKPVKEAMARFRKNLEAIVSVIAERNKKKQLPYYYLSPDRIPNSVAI
Method: as §1
Human peripheral mononuclear blood cells were isolated using Ficoll density separation. Cells were incubated in Hanks Balanced Salt Solution (HBSS) with compounds for 15 minutes at 37° C. Substrate (arachidonic acid) was added in 20 μM final concentration and cells were incubated for another 15 minutes. LTB4 as a final product of arachidonic acid metabolism was measured using competitive enzyme immunoassay (See, e.g., Safayhi, H. et al. Planta Medica 2000, 66, 110-113) and percentage of inhibition was calculated from the levels of LTB4 in cell supernatant.

[3] = molecular target: T2, TxA2 receptor (Homo sapiens, UniProt P21731); assay: Human thromboxane A2, TxA2, assay (SQ-29548 competition); type: binding; details: 10 μM concentration; HEK-293
T2 construct: expressed in transfected cells; host or cells: HEK-293
T2 sequence (P21731 1-343): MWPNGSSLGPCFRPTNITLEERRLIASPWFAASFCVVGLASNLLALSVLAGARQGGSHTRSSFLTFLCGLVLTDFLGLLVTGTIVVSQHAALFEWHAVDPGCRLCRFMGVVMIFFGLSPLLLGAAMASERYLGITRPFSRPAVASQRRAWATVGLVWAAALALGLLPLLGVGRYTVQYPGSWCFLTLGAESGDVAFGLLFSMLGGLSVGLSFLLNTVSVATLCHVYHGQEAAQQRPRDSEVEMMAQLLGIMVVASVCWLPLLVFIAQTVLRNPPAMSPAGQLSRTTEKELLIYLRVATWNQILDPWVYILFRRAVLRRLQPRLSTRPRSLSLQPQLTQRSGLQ
Method: as §1
TxA2 receptor is expressed in HEK-293 cell line. Compounds and radiolabelled competitor SQ-29548 are incubated for 30 minutes at 25° C. Level of bound SQ-29548 is measured by scintillation counting, and competition is calculated from the total amount of the bound SQ-29548. […] is an unstable lipid mediator involved in blood clotting, and immune processes.

[4] = test system: Balb/cJ mice; assay: LPS induced pulmonary neutrophilia in mice; type: in vivo, mouse; details: LPS challenged mice; i.n., i.p. or per os
Method: Male Balb/cJ mice (Iffa Credo, France) weighing ˜25 g are randomly grouped into a negative control group, positive control group and groups treated with compounds to be assayed). Test compounds, as well as vehicle (DMSO+0.5% methyl-cellulose) (all from Sigma), are administered i.n., ip. or per os two hours prior to administration of lipopolysaccharide (LPS) (E. coli, serotype 0111:B4, Sigma) or two hours prior and two hours after administration of LPS. Test compounds are administered at a single dose (two hours prior the challenge) or divided into two doses (two hours prior and two hours after the challenge). LPS solution in phosphate buffered saline (PBS) (Sigma) is administered intranasally in volume of 60 μL at concentration of 33,33 μg/mL, to all experimental groups except the negative control group, which received the same volume (60 μL) of vehicle PBS. During the challenge, animals were anaesthetized by using intraperitoneal anaesthesia. Animals are euthanized by i.p. anesthesia overdose approximately 24 hours after application of LPS to obtain bronchoalveolar lavage fluid (BALF), which is used to determine total protein concentration as well as concentrations of cytokines, such as IL-1β and TNF-α, absolute number of cells, and percentage of neutrophils in BALF. Bronchoalveolar lavage (BAL) is performed by infusing 1 mL of PBS divided into 3 separate volumes (0.4, 0.3 and 0.3 ml) through trachea into the lungs. The fluid is immediately withdrawn and the cell suspension stored into previously prepared 1.5 mL Eppendorf tube. Bronchoalveolar lavage fluid (BALF) is then centrifuged at […] for 5 min (4° C.). Cells are resuspended in 700 μL of PBS. To prepare cytospins, 320 μL of suspension is centrifuged at 250 rpm for 10 min (Cytospin-3, Shandon Instruments). Cells are stained with Dif-Quik (Dade Behring) to determine percentage of neutrophils by counting of at least 200 cells. The remaining resuspended cells are used for total cell count in BALF analysis (Sysmex SF 3000). […] Accumulation of granulocytes and mononuclear cells in peribronclhial (PB) and perivascular (PV) lung tissue areas and alveolar spaces is monitored.
Results can be expressed as (I) decrease of absolute cell number per mL in BALF, (II) decrease of number of neutrophils per mL in BALF, (III) reduction of relative number (percentage) of neutrophils in BALF, (IV) reduction of cytokine concentrations in BALF, as well as (V) suppression of accumulation of granulocytes and mononuclear cells in peribronchial (PB) and perivascular (PV) lung tissue areas and in alveolar spaces by pathohistological scoring of treated animals compared to positive control (LPS stimulated, but untreated animals).

| SMILES | human prostanoid receptor, competition with tritium labelled PGD2 [1] | inhibition of human 5-LO [2] | TxA2 receptor, competition with SQ-29548 [3] | reduction of percentage of neutrophils and/or their total number in BALF and/or by histological scoring [4] |
| --- | --- | --- | --- | --- |
| CC(=O)C(c1c(O)c2cccc(C(C)C)c2oc1=O)c1c(O)c2cccc(C(C)C)c2oc1=O [Example 19] | significantly relevant activity | significantly relevant activity | significantly relevant activity | statistically significant reduction |
| CC(C)c1cccc2c(O)c(C(CO)c3c(O)c4cccc(C(C)C)c4oc3=O)c(=O)oc12 [Example 30] | significantly relevant activity | significantly relevant activity | significantly relevant activity | statistically significant reduction |
| CC(C)c1cccc2c(O)c(C(C(=O)OCCO)c3c(O)c4cccc(C(C)C)c4oc3=O)c(=O)oc12 [Example 50] | significantly relevant activity | significantly relevant activity | significantly relevant activity | statistically significant reduction |
